Measurements: PubChem BioAssay (NCI)
Where “and” joins values, the source holds several entries; their conditions need not be identical. Identical values can stand only once.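 Cells were grown in 96-well plates and exposed to each compound for 48 hours at five concentrations; endpoints were interpolated linearly between bracketing concentrations, or set to the highest concentration if not reached. Abbreviation: GI50, concentration required for 50% inhibition of growth. TGI: concentration producing complete growth inhibition.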

Columns and labels:
Experiment in all cases: NCI anticancer screen, dose series, 48 h
CAKI-1 renal = system: CAKI-1 renal
ACHN renal = system: ACHN renal
HCT-15 colon = system: HCT-15 colon
SNB-19 CNS = system: SNB-19 CNS
A549 NSCLC = system: A549 NSCLC
OVCAR-4 ovarian = system: OVCAR-4 ovarian
TK-10 renal = system: TK-10 renal
UO-31 renal = system: UO-31 renal
786-0 renal = system: 786-0 renal
HCC-2998 colon = system: HCC-2998 colon

SMILES	GI50 (CAKI-1 renal) [nM]	TGI (CAKI-1 renal) [nM]	GI50 (ACHN renal) [nM]	TGI (ACHN renal) [nM]	GI50 (HCT-15 colon) [nM]	TGI (HCT-15 colon)	GI50 (SNB-19 CNS) [nM]	TGI (SNB-19 CNS)	GI50 (A549 NSCLC) [nM]	TGI (A549 NSCLC)	TGI (OVCAR-4 ovarian) [nM]	GI50 (TK-10 renal) [nM]	TGI (TK-10 renal) [nM]	GI50 (UO-31 renal) [nM]	TGI (UO-31 renal)	GI50 (786-0 renal) [nM]	TGI (786-0 renal) [nM]	GI50 (HCC-2998 colon) [nM]	TGI (HCC-2998 colon) [nM]	GI50 (OVCAR-4 ovarian) [nM]
COc1cc(Nc2ncnc(Nc3ccc4c(n3)NC(=O)C(C)(C)O4)n2)cc(OC)c1OC	319	> 100000	160	23700	1700	> 100000 nM	9780	> 100000 nM	1250	> 100000 nM	> 100000	457	> 100000	329	> 100000 nM	492	> 22600	> 100000	> 100000	–
COc1cccc2nc3c(C(=O)NCCN(C)C)cccc3nc12	–	> 100000	–	> 100000	–	80100 nM	–	> 91800 nM	–	> 100000 nM	26700	–	61000	–	66800 nM	–	> 84600	–	36300	–
COc1cc(-c2nccc3cc4c(cc23)OCO4)cc(OC)c1OC	2520	10500	9920	> 100000	3570	> 100000 nM	7340	> 100000 nM	7370	> 100000 nM	> 100000	5640	> 100000	6990	> 100000 nM	7650	> 100000	8680	51700	> 100000
CCOc1ccc(N=Cc2ccnc3ccccc23)cc1	–	> 100000	–	> 100000	–	> 87900 nM	–	> 100000 nM	–	> 100000 nM	> 100000	–	> 100000	–	> 100000 nM	–	> 100000	–	81400	–
Cn1cncc1-c1c(F)cncc1NC(=O)c1c(N)nn2cc(F)cnc12	1450	21700	422	> 100000	180	> 100000 nM	5200	> 100000 nM	2270	> 100000 nM	14400	4540	83700	303	60500 nM	338	> 100000	61.2	> 100000	1270
CC/C(Cc1ccccc1)=C(/c1ccc(O)cc1)c1ccc(OCCN2CCCC2)cc1	1650	3520	1830	3390	1510	3080 nM	1970	3930 nM	2050	3820 nM	5180	1750	3340	1430	2950 nM	1720	3220	1540	2980	2080
COc1cc2nc(-c3cccc4cccnc34)nc(NC3CCN(Cc4ccccc4)CC3)c2cc1OC	1370	2980	773	2080	1110	2430 nM	1340	3160 nM	560	1940 nM	2710	1520	2980	1430	2880 nM	1200	2690	1720	3160	1110
O=C1C=C(Nc2ccc(S(=O)(=O)Nc3ncccn3)cc2)c2ccccc2C1=O	–	89100	–	70400	–	47000 nM	–	90200 nM	–	57900 nM	38800	–	> 100000	–	57500 nM	–	45600	–	36600	–
Clc1ccc(OCc2nnc3n2N=C(c2ccccc2)CS3)c(Cl)c1	–	> 100000	–	> 100000	–	> 100000 nM	–	> 100000 nM	–	> 100000 nM	> 100000	–	> 100000	–	8460 nM	–	> 100000	–	> 100000	–
CCOc1ccc(C(C)=O)cc1NC(=O)c1cccc(-c2nnn(CC)n2)c1	939	> 100000	748	70300	419	> 100000 nM	1290	76600 nM	892	> 100000 nM	> 100000	14300	50300	1940	> 100000 nM	6250	74200	1710	> 100000	4960
CNCCCNc1c2ccccc2nc2cccc([N+](=O)[O-])c12	–	27.1	–	15.2	–	20.7 nM and 11.6 nM	–	30.9 nM and 130 nM	–	5.87 nM and 10.6 nM	5.43	–	32.7	15.8	24.1 nM and 68.2 nM	–	24.7	–	17.3	–
COc1ccc2nc3cccc([N+](=O)[O-])c3c(NCCNCCN(C)C)c2c1	79.7	616	41.4	439	131	–	223	1170 nM	71.2	518 nM	50.9	194	1090	119	377 nM	42.9	164	26.9	115	19.9
COC(=O)CC(=O)NCC1=CCC(=O)CC1	–	> 100000	–	–	–	> 100000 nM	–	> 100000 nM	–	> 100000 nM	> 100000	–	> 100000	–	> 100000 nM	–	> 100000	–	> 100000	–
COc1ccc2[nH]c(C(=O)OCc3ccc4cccc(O)c4n3)cc2c1	1130	2490	690	1980	757	3180 nM	2830	11200 nM	1810	3920 nM	3550	1810	3270	551	1990 nM	1680	3310	1430	2920	1830
NC(=S)N/N=C1/CN(c2ccc(Cl)c(Cl)c2)CC(=O)C1c1nc2ccccc2s1 (stereo not drawn)	–	> 100000	–	> 100000	–	> 100000 nM	–	> 100000 nM	–	> 100000 nM	> 100000	–	> 100000	–	> 100000 nM	–	> 100000	–	> 100000	–
